For one experiment, the target named is Mucolipin-3 (Homo sapiens, UniProt Q8TDD5). Kind of experiment: Dose response cell-based high-throughput screening assay for agonists of the transient receptor potential channel ML3 (TRPML3). [Related pubchem assays: 1526, 1424, 1448 ]. The experiment is classed as functional.
Another experiment concerns the target Ion channel NompC (Danio rerio, UniProt Q7T1G6). Briefly: Fluorescence counterscreen assay for TRPML3 agonists: dose response cell-based high-throughput screening assay to identify agonists of the transient receptor potential channel N1 (TRPN1). [Related pubchem assays: 1526, 1424, 1448 ]. Type of experiment: functional.
The target of experiment [1] is T1, Corticotropin-releasing factor receptor 2/Corticotropin-releasing factor-binding protein (Homo sapiens, UniProt P24387+Q13324).
T1 sequence (Q13324 whole entry): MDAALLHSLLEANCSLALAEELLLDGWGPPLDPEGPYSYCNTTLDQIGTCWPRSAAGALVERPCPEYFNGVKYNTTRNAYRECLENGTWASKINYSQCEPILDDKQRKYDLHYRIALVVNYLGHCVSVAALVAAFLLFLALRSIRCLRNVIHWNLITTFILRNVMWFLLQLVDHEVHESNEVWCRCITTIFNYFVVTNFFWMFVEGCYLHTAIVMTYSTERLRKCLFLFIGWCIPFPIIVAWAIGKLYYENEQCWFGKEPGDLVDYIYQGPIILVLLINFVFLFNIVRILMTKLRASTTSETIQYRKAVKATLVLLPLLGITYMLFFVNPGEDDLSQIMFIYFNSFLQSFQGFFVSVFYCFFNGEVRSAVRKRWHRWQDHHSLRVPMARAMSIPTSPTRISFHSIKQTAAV
T1 sequence (P24387 whole entry): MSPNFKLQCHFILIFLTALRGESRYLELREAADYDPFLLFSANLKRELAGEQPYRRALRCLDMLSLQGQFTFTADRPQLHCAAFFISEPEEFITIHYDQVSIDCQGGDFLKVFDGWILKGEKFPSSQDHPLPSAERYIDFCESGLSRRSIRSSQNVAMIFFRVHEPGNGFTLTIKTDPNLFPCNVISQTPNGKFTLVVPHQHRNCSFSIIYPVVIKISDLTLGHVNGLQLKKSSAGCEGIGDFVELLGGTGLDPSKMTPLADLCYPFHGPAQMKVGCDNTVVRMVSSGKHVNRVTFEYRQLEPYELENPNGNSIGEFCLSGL
Briefly: activators of CRF receptor 2 with binding protein – uHTS hits, confirmation (AID 602473). The experiment is classed as functional. To be noted: read-out: EC50_Mean.

Experiment [2] has as its target T2, Neuropeptide Y receptor type 1 (Homo sapiens, UniProt P25929).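 Note: HEK293 cells with a CNG channel challenged with NPY then isoproterenol; potency as antagonist that reverses NPY suppression of cAMP signal.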
T2 sequence (P25929 whole entry): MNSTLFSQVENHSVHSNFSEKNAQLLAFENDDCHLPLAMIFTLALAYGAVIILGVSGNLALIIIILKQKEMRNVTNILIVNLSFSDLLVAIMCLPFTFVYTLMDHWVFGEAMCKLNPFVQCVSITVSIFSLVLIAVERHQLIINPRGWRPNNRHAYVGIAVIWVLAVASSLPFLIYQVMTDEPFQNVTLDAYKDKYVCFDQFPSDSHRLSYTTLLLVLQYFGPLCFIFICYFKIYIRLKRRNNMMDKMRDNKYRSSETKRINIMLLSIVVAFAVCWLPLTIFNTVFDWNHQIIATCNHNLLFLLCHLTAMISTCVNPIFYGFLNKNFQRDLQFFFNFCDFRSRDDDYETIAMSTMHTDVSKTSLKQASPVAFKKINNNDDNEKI
The experiment is classed as functional.

Experiment [3] can be described thus: cells. The experiment is classed as functional, cell-based.
A short description of experiment [4]: cells. The experiment is classed as functional, cell-based. This is another data set of the same source.
The target of experiment [5] is T3, Neuropeptide Y receptor type 2 (Homo sapiens, UniProt P49146).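 Note: HEK293 cells expressing the receptor and a CNG channel; stimulus was NPY near EC95 followed by isoproterenol to raise cAMP; antagonist potency measured as restoring cAMP signal that NPY suppresses.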
T3 sequence (P49146 whole entry): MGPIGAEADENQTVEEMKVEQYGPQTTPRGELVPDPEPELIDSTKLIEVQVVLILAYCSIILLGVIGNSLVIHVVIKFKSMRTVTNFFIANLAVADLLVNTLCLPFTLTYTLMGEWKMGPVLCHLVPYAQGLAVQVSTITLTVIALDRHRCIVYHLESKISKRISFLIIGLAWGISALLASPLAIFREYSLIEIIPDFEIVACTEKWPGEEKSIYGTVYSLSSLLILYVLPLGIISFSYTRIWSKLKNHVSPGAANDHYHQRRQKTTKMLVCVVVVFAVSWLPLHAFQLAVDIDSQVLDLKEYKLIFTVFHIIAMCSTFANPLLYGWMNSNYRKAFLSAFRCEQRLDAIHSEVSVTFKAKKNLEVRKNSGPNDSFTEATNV
Type of experiment: functional, cell-based.

The target of experiment [6] is T4, Zinc finger protein mex-5 (Caenorhabditis elegans, UniProt Q9XUB2).
T4 sequence (Q9XUB2 whole entry): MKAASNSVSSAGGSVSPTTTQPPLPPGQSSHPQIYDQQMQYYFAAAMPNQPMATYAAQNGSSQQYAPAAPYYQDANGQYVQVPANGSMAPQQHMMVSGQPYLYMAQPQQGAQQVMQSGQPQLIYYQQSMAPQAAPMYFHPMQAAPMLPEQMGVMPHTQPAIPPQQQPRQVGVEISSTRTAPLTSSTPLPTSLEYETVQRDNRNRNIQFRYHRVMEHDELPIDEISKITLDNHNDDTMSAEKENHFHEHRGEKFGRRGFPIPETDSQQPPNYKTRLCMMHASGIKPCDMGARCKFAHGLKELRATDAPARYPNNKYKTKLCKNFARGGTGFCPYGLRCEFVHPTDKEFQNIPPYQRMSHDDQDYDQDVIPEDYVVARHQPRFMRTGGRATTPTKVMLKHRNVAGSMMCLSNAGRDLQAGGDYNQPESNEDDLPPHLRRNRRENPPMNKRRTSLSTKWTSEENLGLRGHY
Kind of experiment: MEX-5/TCR-2 RNA interaction inhibitors, dose response, biochemical, C. elegans, fluorescence polarization (AID 1960).

The target in experiment [7] is T5, RNA-binding protein pos-1 (Caenorhabditis elegans, UniProt G5EF15).
T5 sequence (G5EF15 whole entry): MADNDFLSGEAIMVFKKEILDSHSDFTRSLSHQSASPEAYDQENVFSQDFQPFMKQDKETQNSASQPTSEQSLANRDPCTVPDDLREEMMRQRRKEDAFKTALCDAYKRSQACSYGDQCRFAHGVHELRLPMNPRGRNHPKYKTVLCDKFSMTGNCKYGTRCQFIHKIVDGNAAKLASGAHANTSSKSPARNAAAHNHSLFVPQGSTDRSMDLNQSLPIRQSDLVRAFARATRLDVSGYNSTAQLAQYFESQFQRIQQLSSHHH
Briefly: inhibitors of POS-1/mex-3 RNA binding, dose response, biochemical, fluorescence polarization (AID 1964).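 Note: purified POS-1 fused to maltose binding protein made in E. coli; potency of compounds blocking POS-1 binding to fluorescent RNA.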

Experiment [8] has as its target Luciferin 4-monooxygenase (Photinus pyralis, UniProt P08659). Briefly: Counter Screen for Luciferase-based Assay Positives. [Related pubchem assays: 620, 618, 411 ].
The subject of a further experiment is HT-1080. Kind of experiment: cytotoxicity in HT1080 fibrosarcoma cells, cell-based, fluorescence readout (AID 620). The following applies: Homo sapiens. Type of experiment: functional.

Active and inactive are the calls of the source.

Sequence of Ion channel NompC (Q7T1G6 whole entry): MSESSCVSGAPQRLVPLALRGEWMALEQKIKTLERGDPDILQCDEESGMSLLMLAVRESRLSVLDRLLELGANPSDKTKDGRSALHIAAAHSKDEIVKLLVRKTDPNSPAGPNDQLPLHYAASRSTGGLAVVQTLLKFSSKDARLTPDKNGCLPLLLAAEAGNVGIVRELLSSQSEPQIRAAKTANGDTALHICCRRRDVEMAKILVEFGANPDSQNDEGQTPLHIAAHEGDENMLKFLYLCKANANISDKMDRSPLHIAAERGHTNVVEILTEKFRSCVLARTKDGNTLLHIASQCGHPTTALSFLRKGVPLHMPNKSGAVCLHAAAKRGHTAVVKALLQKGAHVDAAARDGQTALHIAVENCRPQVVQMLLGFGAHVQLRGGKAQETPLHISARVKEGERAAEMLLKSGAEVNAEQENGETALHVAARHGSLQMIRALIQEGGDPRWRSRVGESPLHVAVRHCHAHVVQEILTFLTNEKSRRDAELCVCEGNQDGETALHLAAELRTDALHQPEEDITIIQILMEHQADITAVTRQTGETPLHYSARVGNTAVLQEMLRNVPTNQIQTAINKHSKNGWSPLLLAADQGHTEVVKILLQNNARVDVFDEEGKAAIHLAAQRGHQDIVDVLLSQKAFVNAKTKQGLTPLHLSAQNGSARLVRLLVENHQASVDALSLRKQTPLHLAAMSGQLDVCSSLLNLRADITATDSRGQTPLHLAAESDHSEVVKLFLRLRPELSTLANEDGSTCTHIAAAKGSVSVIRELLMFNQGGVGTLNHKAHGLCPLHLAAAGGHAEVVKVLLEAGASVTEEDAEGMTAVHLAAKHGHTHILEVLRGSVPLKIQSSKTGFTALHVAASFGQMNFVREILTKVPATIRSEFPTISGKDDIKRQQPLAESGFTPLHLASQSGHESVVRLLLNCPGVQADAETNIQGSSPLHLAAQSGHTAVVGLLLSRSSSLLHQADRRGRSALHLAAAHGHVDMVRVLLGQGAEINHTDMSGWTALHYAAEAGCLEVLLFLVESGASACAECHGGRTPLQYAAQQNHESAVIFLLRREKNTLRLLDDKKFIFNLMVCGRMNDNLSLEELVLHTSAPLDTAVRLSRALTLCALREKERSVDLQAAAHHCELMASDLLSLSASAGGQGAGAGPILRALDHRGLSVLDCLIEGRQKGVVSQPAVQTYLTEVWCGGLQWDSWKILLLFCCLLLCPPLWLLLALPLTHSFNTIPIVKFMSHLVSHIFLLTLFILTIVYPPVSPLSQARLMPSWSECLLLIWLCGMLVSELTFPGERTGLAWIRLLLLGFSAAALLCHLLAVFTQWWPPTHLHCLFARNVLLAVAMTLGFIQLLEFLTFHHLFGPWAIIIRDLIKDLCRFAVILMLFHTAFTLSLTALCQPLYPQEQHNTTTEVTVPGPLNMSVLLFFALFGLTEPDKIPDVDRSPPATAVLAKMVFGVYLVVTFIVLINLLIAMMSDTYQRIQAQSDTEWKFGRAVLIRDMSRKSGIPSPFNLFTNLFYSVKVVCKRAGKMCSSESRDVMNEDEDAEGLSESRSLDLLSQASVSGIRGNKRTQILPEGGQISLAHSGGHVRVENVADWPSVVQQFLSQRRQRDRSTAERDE
Sequence of Mucolipin-3 (Q8TDD5 whole entry): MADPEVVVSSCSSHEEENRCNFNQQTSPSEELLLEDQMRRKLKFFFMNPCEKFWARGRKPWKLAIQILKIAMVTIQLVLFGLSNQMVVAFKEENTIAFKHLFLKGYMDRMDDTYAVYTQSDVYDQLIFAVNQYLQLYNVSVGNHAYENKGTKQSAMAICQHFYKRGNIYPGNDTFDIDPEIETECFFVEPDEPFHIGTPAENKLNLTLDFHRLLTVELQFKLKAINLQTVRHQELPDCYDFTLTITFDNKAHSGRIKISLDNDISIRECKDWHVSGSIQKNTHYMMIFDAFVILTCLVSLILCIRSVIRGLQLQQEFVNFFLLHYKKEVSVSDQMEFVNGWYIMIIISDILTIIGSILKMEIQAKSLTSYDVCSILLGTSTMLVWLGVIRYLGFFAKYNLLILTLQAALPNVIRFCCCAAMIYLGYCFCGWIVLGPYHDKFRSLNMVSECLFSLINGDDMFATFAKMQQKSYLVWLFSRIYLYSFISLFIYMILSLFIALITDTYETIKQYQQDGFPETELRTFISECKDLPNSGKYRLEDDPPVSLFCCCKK
Sequence of Luciferin 4-monooxygenase (P08659 whole entry): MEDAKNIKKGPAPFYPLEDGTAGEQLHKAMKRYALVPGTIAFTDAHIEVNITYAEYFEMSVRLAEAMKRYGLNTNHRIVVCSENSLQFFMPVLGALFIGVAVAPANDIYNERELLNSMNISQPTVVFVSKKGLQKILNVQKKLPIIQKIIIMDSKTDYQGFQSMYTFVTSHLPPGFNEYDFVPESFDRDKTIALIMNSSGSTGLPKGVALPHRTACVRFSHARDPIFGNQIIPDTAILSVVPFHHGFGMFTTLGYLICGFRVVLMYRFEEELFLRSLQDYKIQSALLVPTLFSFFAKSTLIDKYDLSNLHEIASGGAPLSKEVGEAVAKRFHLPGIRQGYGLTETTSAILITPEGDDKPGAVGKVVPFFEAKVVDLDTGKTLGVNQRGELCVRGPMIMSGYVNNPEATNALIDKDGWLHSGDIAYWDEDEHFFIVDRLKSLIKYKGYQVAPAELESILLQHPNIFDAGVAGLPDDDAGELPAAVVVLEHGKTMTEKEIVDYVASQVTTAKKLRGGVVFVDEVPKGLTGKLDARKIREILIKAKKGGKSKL

On to `COc1ccc(C(=O)CSc2nnn(-c3cccc(NC(C)=O)c3)n2)cc1`, for which the EC50 on Mucolipin-3 is 17.3 µM (not active); at Ion channel NompC, 9.35 µM (active); in [1] it was 4.96 µM (active).

Consider `CC(C)[C@H](NS(=O)(=O)c1ccccc1)C(=O)OCC(=O)Nc1ccccc1Sc1ccccc1`, for which the EC50 at Mucolipin-3 was 3.96 µM (active); on Ion channel NompC, > 29.9 µM (not active).

As for `CCCCCCCCCS(=O)(=O)N/N=C/c1cccc([N+](=O)[O-])c1`, the IC50 in [2] and in experiment [5] was > 35 µM (not active) throughout. The values for the EC50 in “cells [3]” and in “cells [4]” were 23.7 µM (active) and > 350 µM (not active), respectively.

Take `O=C1C2CC=C(Cl)CC2C(=O)N1CC1Cc2ccccc2CO1` (stereo not given): the values for the EC50 in experiment [6] and in experiment [7] were 22 µM (active) and 23 µM (active), respectively. Moreover, the IC50 in [2] is 7.82 µM (active); in experiment [5], 5.72 µM (active).

For the compound `COc1ccc(S(=O)(=O)N2CCN(C(=O)CCC3CCCC3)CC2)cc1`, the EC50 in experiment [8] was 2.3 µM (active); in the experiment on HT-1080, > 50 µM (not active).

The values are drawn from ChEMBL document CHEMBL1201862, “PubChem BioAssay data set” (2004).
